Assay results reported in ChEMBL document CHEMBL1201862, “PubChem BioAssay data set” (2004).
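How tested: cells in 96-well plates exposed to compound for 48 hours at five concentrations. GI50 is the concentration that inhibits growth by half.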 The source made the active and inactive calls. No stated cut-off is given here; in the data, active = GI50 up to about 1.1 µM and inactive = higher.

Tests used:
Assay in all cases: NCI tumour cell line growth inhibition, 48 h
Hs-578T = tested on: Hs-578T
Malme-3M = tested on: Malme-3M
OVCAR-4 = tested on: OVCAR-4
OVCAR-5 = tested on: OVCAR-5
RPMI-8226 = tested on: RPMI-8226
U-251 = tested on: U-251
EKVX = tested on: EKVX
COLO 205 = tested on: COLO 205
KM12 = tested on: KM12
SK-MEL-2 = tested on: SK-MEL-2
SK-MEL-5 = tested on: SK-MEL-5
MDA-N = tested on: MDA-N
HCT-116 = tested on: HCT-116
MDA-MB-231 = tested on: MDA-MB-231
NCI-H522 = tested on: NCI-H522
ACHN = tested on: ACHN
NCI-H226 = tested on: NCI-H226
HL-60 = tested on: HL-60
M14 = tested on: M14
TK-10 = tested on: TK-10

Measured: GI50

O=C(NCCCl)NCc1ccccc1
inactive: Hs-578T > 100 µM | Malme-3M > 100 µM | OVCAR-4 > 100 µM | OVCAR-5 > 100 µM | RPMI-8226 > 100 µM | U-251 > 100 µM | EKVX > 100 µM | COLO 205 > 100 µM | KM12 > 100 µM | SK-MEL-2 > 100 µM | SK-MEL-5 > 100 µM | MDA-N > 100 µM | HCT-116 > 100 µM | MDA-MB-231 > 100 µM | NCI-H522 > 100 µM | ACHN > 100 µM | NCI-H226 > 100 µM | HL-60 > 100 µM

CC(C)(C)c1cc(/C=C/C(=O)CC(=O)/C=C/c2cc(C(C)(C)C)c(O)c(C(C)(C)C)c2)cc(C(C)(C)C)c1O
inactive: Hs-578T > 50 µM | M14 > 50 µM | OVCAR-4 > 50 µM | OVCAR-5 > 50 µM | RPMI-8226 > 50 µM | U-251 > 50 µM | EKVX > 50 µM | COLO 205 > 50 µM | KM12 28.4 µM | SK-MEL-2 > 50 µM | SK-MEL-5 > 50 µM | TK-10 > 50 µM | MDA-N > 50 µM | HCT-116 > 50 µM | MDA-MB-231 > 50 µM | NCI-H522 > 50 µM | ACHN > 50 µM | NCI-H226 > 50 µM | HL-60 > 50 µM

COc1cc2c(=O)cnoc2cc1O
inactive: Hs-578T > 100 µM | Malme-3M > 100 µM | M14 > 100 µM | OVCAR-4 > 100 µM | OVCAR-5 > 100 µM | RPMI-8226 > 100 µM | U-251 > 100 µM | EKVX > 100 µM | COLO 205 > 100 µM | KM12 > 100 µM | SK-MEL-2 > 100 µM | SK-MEL-5 > 100 µM | TK-10 > 100 µM | MDA-N > 100 µM | MDA-MB-231 > 100 µM | NCI-H522 > 100 µM | ACHN > 100 µM | NCI-H226 > 100 µM | HL-60 > 100 µM

Cn1[nH]nn/c1=N\N=C\c1ccccc1
inactive: Hs-578T > 10 µM | M14 > 10 µM | OVCAR-4 > 10 µM | OVCAR-5 > 10 µM | RPMI-8226 > 10 µM | U-251 > 10 µM | EKVX 2.9 µM | COLO 205 > 10 µM | KM12 > 10 µM | SK-MEL-2 > 10 µM | SK-MEL-5 > 10 µM | TK-10 > 10 µM | MDA-N > 10 µM | HCT-116 > 10 µM | MDA-MB-231 > 10 µM | NCI-H522 > 10 µM | ACHN > 10 µM | NCI-H226 > 10 µM | HL-60 > 10 µM

CCCCCCCCCCCC(=O)c1c(O)cc(C)oc1=O
inactive: Hs-578T 51.6 µM | Malme-3M 45 µM | M14 79.1 µM | OVCAR-5 92.7 µM | RPMI-8226 > 100 µM | U-251 48.5 µM | EKVX 38.5 µM | COLO 205 26.5 µM | KM12 44.9 µM | SK-MEL-2 56.4 µM | SK-MEL-5 29 µM | TK-10 > 100 µM | MDA-N 34.6 µM | HCT-116 45.7 µM | MDA-MB-231 28.8 µM | NCI-H522 42.4 µM | ACHN 31.5 µM | NCI-H226 45.6 µM | HL-60 42.4 µM

CCOP(=O)(CCCC(O)CNc1cc(Cl)nc(N)n1)OCC (stereo not given)
inactive: Hs-578T > 100 µM | Malme-3M > 100 µM | OVCAR-4 > 100 µM | OVCAR-5 > 100 µM | RPMI-8226 > 100 µM | U-251 > 100 µM | EKVX > 100 µM | COLO 205 > 100 µM | KM12 > 100 µM | SK-MEL-2 > 100 µM | SK-MEL-5 > 100 µM | TK-10 > 100 µM | MDA-N > 100 µM | HCT-116 > 100 µM | MDA-MB-231 > 100 µM | NCI-H522 > 100 µM | ACHN > 100 µM | NCI-H226 > 100 µM | HL-60 > 100 µM

CCSc1cc2c(cc1O)CC[C@@H]1[C@@H]2CC[C@]2(C)[C@@H](O)CC[C@@H]12
inactive: Hs-578T 5.33 µM | Malme-3M 11.2 µM | OVCAR-4 18.3 µM | OVCAR-5 23 µM | RPMI-8226 8.17 µM | U-251 12.6 µM | COLO 205 18.3 µM | KM12 8.11 µM | SK-MEL-2 16.3 µM | SK-MEL-5 10.8 µM | TK-10 27.1 µM | MDA-N 2.67 µM | HCT-116 8.57 µM | MDA-MB-231 4.94 µM | NCI-H522 6.61 µM | ACHN 11.3 µM | NCI-H226 15 µM | HL-60 4.54 µM

NC(=O)Nc1c(Cl)cc(S(N)(=O)=O)cc1Cl
inactive: Hs-578T > 100 µM | Malme-3M > 100 µM | M14 > 100 µM | OVCAR-4 > 100 µM | OVCAR-5 > 100 µM | RPMI-8226 > 100 µM | U-251 > 100 µM | EKVX > 100 µM | COLO 205 > 100 µM | KM12 > 100 µM | SK-MEL-2 > 100 µM | SK-MEL-5 > 100 µM | TK-10 > 100 µM | MDA-N > 100 µM | HCT-116 > 100 µM | MDA-MB-231 > 100 µM | NCI-H522 > 100 µM | NCI-H226 > 100 µM | HL-60 > 100 µM
